In patent publication US20180246095A1, “COMPOSITIONS AND METHODS FOR DIAGNOSING AND TREATING LYME DISEASE” (priority 2015, published 2018):

Tested on: B. burgdorferi B31
Test: RNA-Seq gene expression profile of B. burgdorferi persisters that survived antibiotic treatment, compared with drug free control
Type: cell-based, Borrelia burgdorferi
Method: RNA Sequencing (RNA-Seq) was performed to determine the gene expression profile of B. burgdorferi persisters that survived antibiotic treatment using next generation sequencing to shed light on the mechanisms of B. burgdorferi persistence. B. burgdorferi B31 cultures were grown for 5 days to 1×10^7 spirochetes/ml in BSK-H medium followed by treatment with 50 μg/ml doxycycline or 50 μg/ml amoxicillin for 6 days. Triplicate biological samples were used for each group. The total RNA was extracted and ribosomal RNA was removed prior to preparation of cDNA libraries for Illumina sequencing. […] The RNA-Seq data was analyzed by BLAST analysis and mapped to KEGG pathways.

CC1(C)S[C@@H]2[C@H](NC(=O)[C@H](N)c3ccc(O)cc3)C(=O)N2[C@H]1C(=O)O [Amo]
Expression BB_U05 (gene BB_U05, PF-32 protein): 0 | Expression BB_U06 (gene BB_U06, plasmid partition protein): 0 | Expression BB_U07 (gene BB_U07, protein BBC01): 0 | Expression BB_U08 (gene BB_U08, SUA5 subfamily protein): 0 | Expression BB_U09 (gene BB_U09, TM2 family protein): 0 | Expression BB_U10 (gene BB_U10, protein BBC01): 0 | Expression BB_U11 (gene BB_U11, Sua5/YciO/YrdC/YwlC family protein): 0 | Expression BB_t19 (gene BB_t19, Ser tRNA): 7 | Expression BB_t26 (gene BB_t26, Arg tRNA): 0 | Expression BB_t27 (gene BB_t27, Leu tRNA): 2 | Expression BB_L35 (gene bdrO BB_L35, protein BdrO): 0 | Expression BB_N34 (gene bdrQ BB_N34, BdrQ): 1 | Expression BB_Q34 (gene bdrW BB_Q34, protein BdrW protein): 1 | Expression BB_L23 (gene blyA BB_L23, holin protein): 0 | Expression BB_L24 (gene blyB BB_L24, holin protein): 0 | Expression BB_L36 (gene bppA BB_L36, protein BppA): 0 | Expression BB_L37 (gene bppB BB_L37, protein BppB): 1 | Expression BB_Q47 (gene erpX BB_Q47, protein ErpX): 0 | Expression BB_L28 (gene mlpH BB_L28, lipoprotein): 1 | Expression BB_t16 (gene tRNA-Arg-3 BB_t16, Arg tRNA): 3 | Expression BB_t08 (gene tRNA-His-1 BB_t08, His tRNA): 0 | Expression BB_t07 (gene tRNA-Lys-2 BB_t07, Lys tRNA): 0 | Expression BB_t14 (gene tRNA-Thr-2 BB_t14, Thr tRNA): 0 | Expression BB_t03 (gene tRNA-Trp-1 BB_t03, Trp tRNA): 1 | Expression BB_I16 (gene vraA BB_I16, repetitive antigen A): 0 | Expression BB_0368 (glycerol-3-phosphate dehydrogenase): 95 | Expression BB_0185 (glycoprotease family protein): 50 | Expression blyB BB_R24 (hemolysin accessory protein): 0 | Expression blyA BB_M23 (holin protein): 0 | Expression blyA BB_N23 (holin protein): 50 | Expression blyA BB_P23 (holin protein): 64 | Expression blyA BB_S23 (holin protein): 0 | Expression blyB BB_N24 (holin protein): 0 | Expression blyB BB_S24 (holin protein): 0 | Expression BB_0024 (hypothetical protein): 390 | Expression BB_0029 (hypothetical protein): 114 | Expression BB_0044 (hypothetical protein): 0 | Expression BB_0102 (hypothetical protein): 53 | Expression BB_0162 (hypothetical protein): 401 | Expression BB_0238 (hypothetical protein): 26 | Expression BB_0242 (hypothetical protein): 2 | Expression BB_0252 (hypothetical protein): 497 | Expression BB_0308 (hypothetical protein): 0 | Expression BB_0322 (hypothetical protein): 1 | Expression BB_0331 (hypothetical protein): 5 | Expression BB_0336 (hypothetical protein): 61 | Expression BB_0352 (hypothetical protein): 66 | Expression BB_0367 (hypothetical protein): 176 | Expression BB_0373 (hypothetical protein): 4 | Expression BB_0378 (hypothetical protein): 129 | Expression BB_0428 (hypothetical protein): 627 | Expression BB_0525 (hypothetical protein): 73 | Expression BB_0549 (hypothetical protein): 0 | Expression BB_0576 (hypothetical protein): 140 | Expression BB_0646 (hypothetical protein): 444 | Expression BB_0663 (hypothetical protein): 533 | Expression BB_0673 (hypothetical protein): 15 | Expression BB_0707 (hypothetical protein): 35 | Expression BB_0739 (hypothetical protein): 51 | Expression BB_0799 (hypothetical protein): 2 | Expression BB_0824 (hypothetical protein): 98 | Expression BB_0838a (hypothetical protein): 4 | Expression BB_A09 (hypothetical protein): 50 | Expression BB_A13 (hypothetical protein): 256 | Expression BB_A61 (hypothetical protein): 133 | Expression BB_D22 (hypothetical protein): 5 | Expression BB_D24 (hypothetical protein): 0 | Expression BB_D0027 (hypothetical protein): 0 | Expression BB_G33 (hypothetical protein): 13 | Expression BB_G34 (hypothetical protein): 439 | Expression BB_H05 (hypothetical protein): 23 | Expression BB_H27 (hypothetical protein): 4 | Expression BB_J13 (hypothetical protein): 5 | Expression BB_J19 (hypothetical protein): 3 | Expression BB_J24 (hypothetical protein): 0 | Expression BB_J46 (hypothetical protein): 17 | Expression BB_J47 (hypothetical protein): 69 | Expression BB_J0056 (hypothetical protein): 13 | Expression BB_L19 (hypothetical protein): 24 | Expression BB_L20 (hypothetical protein): 22 | Expression BB_L25 (hypothetical protein): 13 | Expression BB_L26 (hypothetical protein): 1 | Expression BB_L41 (hypothetical protein): 0 | Expression BB_M12 (hypothetical protein): 0 | Expression BB_M13 (hypothetical protein): 0 | Expression BB_M14 (hypothetical protein): 0 | Expression BB_M15 (hypothetical protein): 0 | Expression BB_M17 (hypothetical protein): 0 | Expression BB_M25 (hypothetical protein): 0 | Expression BB_M30 (hypothetical protein): 0 | Expression BB_M39 (hypothetical protein): 0 | Expression BB_M41 (hypothetical protein): 0 | Expression BB_N20 (hypothetical protein): 68 | Expression BB_N30 (hypothetical protein): 1 | Expression BB_N41 (hypothetical protein): 47 | Expression BB_O02 (hypothetical protein): 0 | Expression BB_O03 (hypothetical protein): 0 | Expression BB_O04 (hypothetical protein): 0 | Expression BB_O05 (hypothetical protein): 0 | Expression BB_O06 (hypothetical protein): 0 | Expression BB_O08 (hypothetical protein): 0 | Expression BB_O09 (hypothetical protein): 0 | Expression BB_O10 (hypothetical protein): 0 | Expression BB_O13 (hypothetical protein): 0 | Expression BB_O29 (hypothetical protein): 46 | Expression BB_O31 (hypothetical protein): 0 | Expression BB_P20 (hypothetical protein): 288 | Expression BB_P21 (hypothetical protein): 291 | Expression BB_P30 (hypothetical protein): 5 | Expression BB_Q27 (hypothetical protein): 36 | Expression BB_Q28 (hypothetical protein): 22 | Expression BB_Q32 (hypothetical protein): 14 | Expression BB_Q33 (hypothetical protein): 147 | Expression BB_Q38 (hypothetical protein): 0 | Expression BB_Q39 (hypothetical protein): 0 | Expression BB_Q54 (hypothetical protein): 1 | Expression BB_Q62 (hypothetical protein): 1 | Expression BB_Q0091 (hypothetical protein): 6 | Expression BB_R20 (hypothetical protein): 73 | Expression BB_R25 (hypothetical protein): 43 | Expression BB_R26 (hypothetical protein): 393 | Expression BB_R29 (hypothetical protein): 252 | Expression BB_R31 (hypothetical protein): 0 | Expression BB_R43 (hypothetical protein): 111 | Expression BB_S06 (hypothetical protein): 0 | Expression BB_S08 (hypothetical protein): 0 | Expression BB_S11 (hypothetical protein): 0 | Expression BB_S12 (hypothetical protein): 0 | Expression BB_S13 (hypothetical protein): 0 | Expression BB_S14 (hypothetical protein): 0 | Expression BB_S18 (hypothetical protein): 0 | Expression BB_S19 (hypothetical protein): 0 | Expression BB_S20 (hypothetical protein): 0 | Expression BB_S21 (hypothetical protein): 11 | Expression BB_S25 (hypothetical protein): 120 | Expression BB_S33 (hypothetical protein): 29 | Expression BB_0316 (integral membrane protein): 36 | Expression BB_0580 (integral membrane protein): 210 | Expression BB_0193 (lipoprotein): 15 | Expression BB_0628 (lipoprotein): 158 | Expression BB_0664 (lipoprotein): 142 | Expression BB_0832 (lipoprotein): 753 | Expression BB_B27 (lipoprotein): 42 | Expression BB_D10 (lipoprotein): 51 | Expression BB_J36 (lipoprotein): 90 | Expression mlpF BB_M28 (lipoprotein): 0 | Expression la7 BB_0365 (lipoprotein LA7): 112 | Expression BB_0593 (long-chain-fatty-acid CoA ligase): 24 | Expression BB_0353 (membrane protein): 31 | Expression BB_0759 (membrane protein): 1041 | Expression BB_0143 (membrane protein insertion efficiency factor): 1085 | Expression BB_0034 (outer membrane protein P13): 41 | Expression BB_M01 (phage portal protein): 0 | Expression pstC BB_0216 (phosphate ABC transporter permease PstC): 128 | Expression BB_0727 (phosphofructokinase): 48 | Expression BB_H29 (plasmid partition protein): 0 | Expression proS BB_0402 (proline--tRNA ligase): 87 | Expression bdrF BB_S29 (protein BdrF): 15 | Expression bdrV BB_Q42 (protein BdrV): 1 | Expression erpM BB_O40 (protein ErpM): 0 | Expression BB_H13 (protein RepU): 3 | Expression BB_A69 (putative surface protein): 98 | Expression ksgA BB_0590 (rRNA small subunit methyltransferase A): 177 | Expression dnaB BB_0111 (replicative DNA helicase): 144 | Expression BB_0419 (response regulator): 34 | Expression lepB BB_0263 (signal peptidase I): 98 | Expression BB_0453 (small conductance mechanosensitive ion channel): 467 | Expression BB_0641 (spermidine/putrescine transport system permease): 70 | Expression BB_0153 (superoxide dismutase): 202 | Expression BB_I39 (surface antigen): 8 | Expression BB_0225 (tRNA-dihydrouridine synthase A): 194 | Expression rho BB_0230 (transcription termination factor Rho): 22 | Expression BB_0025 (transcriptional regulator): 272 | Expression infA BB_0169 (translation initiation factor IF-1): 522 | Expression ung BB_0053 (uracil-DNA glycosylase): 1626 | Expression udk BB_0015 (uridine kinase): 37 | Expression BB_0831 (xylose operon regulatory protein): 122
